Settings: 101.33 kPa, Liquid, Concentric cylinders viscometry

OCC(O)CO [glycerol]
Settings | viscosity [mPa·s]
292.89 K | 1470
298.1 K | 970.6
302.59 K | 645.8
312.81 K | 305.3
323.88 K | 147.4
333.15 K | 84.71
343.8 K | 49.83
353.67 K | 31.8
364.12 K | 21.05
374.38 K | 14.74
383.29 K | 11
394.08 K | 8.32

Source: the NIST ThermoML archive (doi:10.1016/j.jct.2017.05.042)
